# Active and inactive are the calls of the source. The rule behind the calls is not given here. Starred links: 1 amine or outer side, 2 acyl side, 3 side chain; linkers in the order of their positions; H or OH if unused. Positions of bridges follow the written chain, without caps; N, C: chain ends. Non-standard residues stand in square brackets, D forms with d. Residues, ends and D or L forms follow the SMILES beside them. Chains are numbered I, II in the order given. Actinocin(9to1) = Cc1c2oc3c(C)ccc(C(=O)[*:1])c3nc-2c(C(=O)[*:2])c(N)c1=O; NMeV = CN[C@H](C(=O)O)C(C)C; Sar = CNCC(=O)O
# Legend:
# H22 [1] = test: Antitumor activity against mouse H22 cells xenografted in ICR mouse assessed as tumor growth inhibition at 0.25 mg/kg,SC for 10 consecutive days; type: functional, organism-based
# [2] = Toxicity in ICR mouse xenografted with mouse H22 cells assessed as body weight loss at 0.25 mg/kg,SC for 10 consecutive days; type: organism-based; details: in vivo
# [3] = Negative allosteric modulator activity at Escherichia coli GDH incubated for 1.5 hrs in presence of glutamate and NADP by EZMTT assay
# [4] = biological target: T1, Glutaminase kidney isoform, mitochondrial (Homo sapiens, UniProt O94925); test: Negative allosteric modulator activity at human wildtype KGA incubated for 5 hrs in presence of GDH and NADP by EZMTT assay
# T1 sequence (O94925 whole entry): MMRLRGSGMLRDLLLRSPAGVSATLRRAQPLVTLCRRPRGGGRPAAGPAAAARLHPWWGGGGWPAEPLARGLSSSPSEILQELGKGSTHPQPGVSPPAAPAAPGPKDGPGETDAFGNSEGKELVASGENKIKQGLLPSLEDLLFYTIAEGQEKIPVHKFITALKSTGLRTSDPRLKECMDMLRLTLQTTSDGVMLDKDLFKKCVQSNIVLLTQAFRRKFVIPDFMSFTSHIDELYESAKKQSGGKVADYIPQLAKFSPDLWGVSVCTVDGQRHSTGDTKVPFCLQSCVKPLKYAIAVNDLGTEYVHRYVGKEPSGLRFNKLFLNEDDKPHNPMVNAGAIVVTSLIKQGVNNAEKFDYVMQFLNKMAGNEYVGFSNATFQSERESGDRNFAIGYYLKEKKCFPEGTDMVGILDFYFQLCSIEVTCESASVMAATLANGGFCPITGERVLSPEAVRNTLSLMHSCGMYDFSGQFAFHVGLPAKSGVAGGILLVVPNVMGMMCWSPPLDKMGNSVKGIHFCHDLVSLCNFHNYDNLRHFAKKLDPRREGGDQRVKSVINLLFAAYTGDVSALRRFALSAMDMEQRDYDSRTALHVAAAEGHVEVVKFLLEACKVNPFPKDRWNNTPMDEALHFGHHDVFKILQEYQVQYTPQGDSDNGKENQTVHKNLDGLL
# Thioredoxin reductase = Thioredoxin reductase (Escherichia coli (strain K12), UniProt P0A9P4); test: Negative allosteric modulator activity at Escherichia coli TrxR using DTNB as substrate preincubated for 20 mins followed by substrate addition in presence of NADPH and measured after 60 mins
# Thioredoxin reductase, sequence (P0A9P4 whole entry): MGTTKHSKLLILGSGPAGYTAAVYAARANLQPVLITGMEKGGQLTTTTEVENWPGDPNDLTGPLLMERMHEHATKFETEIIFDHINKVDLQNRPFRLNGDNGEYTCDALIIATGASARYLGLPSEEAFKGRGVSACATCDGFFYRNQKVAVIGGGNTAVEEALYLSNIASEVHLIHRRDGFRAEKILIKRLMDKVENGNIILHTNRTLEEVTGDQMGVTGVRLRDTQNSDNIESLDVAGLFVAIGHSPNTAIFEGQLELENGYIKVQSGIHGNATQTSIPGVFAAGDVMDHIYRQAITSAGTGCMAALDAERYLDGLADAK
# H22 [5] = test: Antiproliferative activity against mouse H22 cells assessed as cell growth inhibition incubated for 5 days by EZMTT assay; type: functional, cell-based; details: H22, 120 h
# A549 = test: Antiproliferative activity against human A549 cells assessed as cell growth inhibition incubated for 5 days by EZMTT assay; type: functional, cell-based; details: A549, 120 h
# U-251 = test: Antiproliferative activity against human U-251 cells assessed as cell growth inhibition incubated for 5 days by EZMTT assay; type: functional, cell-based; details: U-251, 120 h
# ACHN = test: Antiproliferative activity against human ACHN cells assessed as cell growth inhibition incubated for 5 days by EZMTT assay; type: functional, cell-based; details: 120 h
# CAKI-1 = test: Antiproliferative activity against human CAKI-1 cells assessed as cell growth inhibition incubated for 5 days by EZMTT assay; type: functional, cell-based; details: CAKI-1, 120 h
# HepG2 = test: Antiproliferative activity against human HepG2 cells assessed as cell growth inhibition incubated for 5 days by EZMTT assay; type: functional, cell-based; details: HepG2, 120 h
# HGC-27 = test: Antiproliferative activity against human HGC-27 cells assessed as cell growth inhibition incubated for 5 days by EZMTT assay; type: functional, cell-based; details: HGC-27, 120 h
# [6] = tested on: KATO III stomach cancer cell line; test: Antiproliferative activity against human KATO III stomach cancer cell line assessed as cell growth inhibition incubated for 5 days by EZMTT assay; type: functional, cell-based; details: 120 h
# [7] = biological target: T1, Glutaminase kidney isoform, mitochondrial; test: Negative allosteric modulator activity at human wildtype KGA using glutamine as substrate preincubated for 1 hr followed by substrate addition in presence of GDH and NADP and measured after 4 hrs by EZMTT reagent based dilution assay
# [8] = Negative allosteric modulator activity at human KGA K320A mutant using glutamine as substrate preincubated for 1 hr followed by substrate addition in presence of GDH and NADP and measured after 4 hrs by EZMTT reagent based dilution assay
# H22 [9] = test: Antitumor activity against mouse H22 cells xenografted in ICR mouse assessed as reduction in tumor size at 10 mg/kg,SC for 10 consecutive days; type: functional; parameters: scale not given: the % may be the effect or the level left
# [10] = Toxicity in ICR mouse xenografted with mouse H22 cells assessed as body weight loss at 10 mg/kg,SC for 10 consecutive days; type: organism-based; details: in vivo
# H22 [11] = test: Antitumor activity against mouse H22 cells xenografted in ICR mouse assessed as increase in survival time at SC administration for 10 consecutive days and measured after 32 days; type: functional; details: time 32.0 day
# [12] = Toxicity in ICR mouse xenografted with mouse H22 cells assessed as change in body weight at 10 mg/kg,SC for 10 consecutive days and measured after 32 days; type: organism-based; details: in vivo, 768 h, time 32 day
# [13] = Toxicity in ICR mouse xenografted with mouse H22 cells assessed as change in body weight at 30 mg/kg,SC for 10 consecutive days and measured after 32 days; type: organism-based; details: in vivo, 768 h, time 32 day
# [14] = biological target: T2, Glutaminase kidney isoform, mitochondrial (Homo sapiens) (UniProt O94925); test: Binding affinity to human biotinylated wildtype KGA at 0.01 to 1 uM by biolayer interferometry assay; details: filed as negative allosteric modulator, dose 0.01-1 µM
# T2 sequence (whole entry): T1 sequence (O94925 whole entry)
# Homo sapiens [15] = organism: Homo sapiens; test: Binding affinity to human biotinylated KGA K320A mutant at 0.01 to 1 uM by biolayer interferometry assay; details: dose 0.01-1 µM
# [16] = Toxicity in ICR mouse xenografted with mouse H22 cells assessed as change in body weight at 1 to 10 mg/kg,SC for 10 consecutive days and measured after 32 days; type: organism-based; details: in vivo, 768 h, dose 1-10 mg/kg, time 32 day
# Homo sapiens [17] = organism: Homo sapiens; test: Binding affinity to human biotinylated KGA K320A mutant at 1 to 10 uM by biolayer interferometry assay; details: dose 1-10 µM
# H22 [18] = test: Antitumor activity against mouse H22 cells xenografted in ICR mouse assessed as increase in survival time at 10 mg/kg,SC administration for 10 consecutive days and measured after 32 days; type: functional, organism-based; details: time 32.0 day
SMILES,IC50 [3] [µM],IC50 [4] [µM],IC50 (Thioredoxin reductase) [µM],IC50 (H22 [5]) [µM],IC50 (A549) [µM],also measured
"Cc1c2oc3c(C)ccc(C(=O)N[C@@H]4C(=O)N[C@H](C(C)C)C(=O)N5CCC[C@H]5C(=O)N(C)CC(=O)N(C)[C@@H](C(C)C)C(=O)O[C@@H]4C)c3nc-2c(C(=O)N[C@@H]2C(=O)N[C@H](C(C)C)C(=O)N3CCC[C@H]3C(=O)N(C)CC(=O)N(C)[C@@H](C(C)C)C(=O)O[C@@H]2C)c(N)c1=O [DACTINOMYCIN] (I: T[dV]P[Sar][NMeV] / II: T[dV]P[Sar][NMeV]; ester I:1-I:C, II:1-II:C; linker I:N-II:N via Actinocin(9to1))",–,–,–,–,–,Activity (H22 [1]): Active; Activity [2]: Toxic
Cc1nn(CCCCCCn2nc(C)c(Cl)c2C)c(C)c1Cl,> 10,> 10,> 10,> 10,> 10,–
c1ccc(CC[Se][Se]CCc2ccccc2)cc1,> 10,> 10,13,5.6,> 10,–
O=c1[nH]n(CC[Se][Se]CCn2[nH]c(=O)c3ccccc3c2=O)c(=O)c2ccccc12,> 10,1,2.1,> 10,> 10,–
O=C1c2ccccc2C(=O)N1CC[Se][Se]CCN1C(=O)c2ccccc2C1=O,> 10,0.4,0.7,0.83,1.6,IC50 (U-251): 1.6 µM; IC50 (ACHN): 2.1 µM; IC50 (CAKI-1): 3.3 µM; IC50 (HepG2): 1.9 µM; IC50 (HGC-27): 1.2 µM; IC50 [6]: 1.65 µM; IC50 [7]: 2.1 µM; IC50 [8]: > 10 µM; Activity (H22 [9]): ~70%; Activity [10]: Non-Toxic; Activity (H22 [11]): Dose-Dependent Effect; Activity [12]: Toxic; Activity [13]: Toxic
Nc1nnc(CC[Se][Se]CCc2nnc(N)s2)s1,> 10,4,3,2.6,9,–
Cc1nn(CCSSCCn2nc(C)c(Cl)c2C)c(C)c1Cl,> 10,> 10,> 10,> 10,> 10,–
Cc1nn(CCC[Se]CCn2nc(C)c(Cl)c2C)c(C)c1Cl,> 10,> 10,> 10,8,> 10,–
O=C1c2ccccc2C(=O)N1CCSSCCN1C(=O)c2ccccc2C1=O,> 10,> 10,> 10,> 10,> 10,–
Nc1nnc(CCCCCCc2nnc(N)s2)s1,> 10,> 10,> 10,> 10,> 10,–
Nc1nnc(CC[Se][Se]CCc2nnc(N)[se]2)[se]1,> 10,3,4,2.6,8,–
Cc1nn(CC[Se][Se]CCn2nc(C)c3ccccc32)c2ccccc12,> 10,0.2,0.5,3.5,0.75,IC50 [7]: 2.2 µM; IC50 [8]: > 10 µM; Activity [14]: Active; Activity (Homo sapiens [15]): inactive; Activity (H22 [9]): ~70%; Activity [10]: Non-Toxic; Activity (H22 [11]): Dose-Dependent Effect; Activity [16]: Toxic
O=C(Cc1cccc(OC(F)(F)F)c1)Nc1ccc(CCCCc2nnc(NC(=O)Cc3ccccn3)s2)nn1,> 10,–,> 10,> 10,–,IC50 [8]: 0.3 µM; Activity (Homo sapiens [17]): inactive; Activity (H22 [18]): inactive
Cc1cc(C)n(CC[Se][Se]CCn2nc(C)cc2C)n1,> 10,3.6,3.7,2.8,1.7,–
Cc1nn(CC[Se][Se]CCn2nc(C)c(Cl)c2C)c(C)c1Cl,> 10,0.54,0.7,4,3,–
Nc1nnc(CCCCCCc2nnc(N)[se]2)[se]1,> 10,> 10,> 10,> 10,> 10,–
O=[N+]([O-])c1ccc2c(cnn2CC[Se][Se]CCn2ncc3cc([N+](=O)[O-])ccc32)c1,> 10,0.4,0.7,8,0.4,–
Cc1cc(C)n(CCSSCCn2nc(C)cc2C)n1,> 10,> 10,> 10,> 10,> 10,–
CCCCCCCC[Se][Se]CCCCCCCC,> 10,> 10,> 10,> 10,> 10,–
